Data set [1] has as its system DGAT. The data set can be described thus: Assay for inhibitory activity against DGAT ([14C]triacylglycerol formation, rat microsomal protein as enzyme source). The data set is classed as biochemical. The settings on record: for DGAT (inhibition % in 25 μM) / DGAT (inhibition % in 5 μM): rat microsomal protein as enzyme source; for inhibitory activity against DGAT (in words): rat hepatic microsomal protein, 1,2-diacylglycerol and [14C]palmitoyl-CoA as substrates. How it is done: The following experiment was performed in order to examine the inhibitory activity of the indole derivatives of the present invention against DGAT. After enzymatic reaction between two substrates, 1,2-diacylglycerol (Sigma, D0138) and [^14C]palmitoyl-CoA (Amersham, CFA583), with the microsomal protein of rats serving as an enzyme source in accordance with Coleman et al, Methods Enzymol., 98-103, 1992, the resulting product [^14C] triacylglycerol was measured for radioactivity.
In detail, to a reaction buffer (175 mM Tris-HCl, pH 8.0, 20 μl bovine serum albumin (10 mg/ml), 100 mM MgCl2, 30 μM [^14C] palmitoyl-CoA (0.02 μCi, Amersham) and 200 μM 1,2-dioleoyl glycerol) was added 10 μl of a solution of the samples in dimethylsulfoxide (DMSO) and then 100-200 μl of an isolated microsomal protein, followed by reaction at 25° C. for 10 min. The reaction was terminated with 1.5 ml of a mixture of 80:20:2 2-propanol:heptane:water (v:v:v). Thereafter, the [^14C] triacylglycerol thus formed was separated. In this regard, 1 ml of heptane and 0.5 ml of distilled water were added to the reaction mixture, which was then shaken. 1 ml of the supernatant thus formed was mixed with 2 ml of an alkaline ethanol solution (ethanol:0.5 N sodium hydroxide:water=50:10:40, v:v:v), followed by shaking. After it was recovered, 0.65 ml of the supernatant thus formed was measured for radioactivity using an LSC (liquid scintillation counter). The inhibitory activity against DGAT was calculated according to the following Mathematical Formula 1.
T: Cpm of a test group in which a sample was added to an enzymatic buffer,
C: Cpm of a control in which no samples were added to an enzymatic buffer,
B: Cpm of a control in which a sample was added in the absence of any enzyme source.

Data set [2] concerns DGAT. The data set can be described thus: Assay for inhibitory effect on DGAT in cell (triglyceride production from [14C]acetate in HepG2 cells). The data set is classed as cell-based, human. The note with it: 10 μM; for Production Yield of Triglyceride (%): DMSO control taken as 100. How it is done: The effect of the indole derivatives of the present invention on DGAT was examined with HepG2 cells, hepatic cells derived from the human liver, as follows.
HepG2 cells, purchased from ATCC, were cultured in MEM (Minimum Essential Medium, 2 mM L-glutamine, Earle's BSS adjusted to contain 1.5 g/L sodium bicarbonate, 0.1 mM nonessential amino acids, and 1 mM sodium pyruvate), supplemented with 10% fetal bovine serum (FBS) and 1% antibiotics (100 U/ml penicillin and 100 µg/ml streptomycin) at 37° C. in a 5% CO2 incubator.
Intracellular DGAT activity was represented by the amount of triglycerides produced in the cultured HepG2 cells while the compounds (1, 6, 10, 11 and 15) of Chemical Formula 1 were assayed for inhibitory activity against DGAT by measuring the change in intracellular triglyceride production after the addition thereof.
Cells were plated at a density of 1×10^6 cell/ml per well into 24-well plates and incubated for 24 hours. Then, the medium was exchanged with FBS-free MEM. Thereafter, 0.2 mCi of [^14C]acetate (Amersham) was added as a substrate to the cells, followed by incubation for 18 hours. The production of triglycerides was catalyzed by DGAT so that DGAT activity was determined by the amount of the triglyceride product, which could be measured using radioactivity. For use, the samples were dissolved in dimethyl sulfoxide (DMSO). In a control, triglycerides were synthesized using DMSO without any sample, with the production yield thereof taken as 100.
The amount of the triglyceride products synthesized was determined as follows. […] 1 ml of the extract was concentrated with nitrogen gas. The total lipid residue thus formed was dissolved in an organic solvent mixture (chloroform:methanol=2:1) and loaded dropwise onto a thin layer chromatography plate (TLC; silica gel 60F254, 0.5 mm, Merck) using a mixture of 80:20:1 hexane:diethylether:acetic acid (v:v:v) as a developing solvent. After the separation of triglycerides (Rf value: 0.4) on TLC, the plate was brought into contact with an autoradiographic film for three hours, followed by image analysis (BAS-1500, Fuji Photo Film Co. Ltd.) to determine the [^14C] radioactivity of the triglycerides. The cells left after the extraction were suspended in 0.3 ml of a 0.1 N sodium hydroxide solution to measure the cellular protein concentration thereof.
The empirical values were obtained by dividing triglyceride radioactivity by protein level, with correction for experimental errors between test groups.

The subject of data set [3] is SPF ICR mice. The data set can be described thus: Single-dose oral acute toxicity, SPF ICR mice. The data set is classed as in vivo, mouse. How it is done:
In addition, the compounds of the present invention were orally administered once at a dose of as high as 2,000 mg/kg into mice. In this regard, 7-week-old male SPF ICR mice (Dae Han Biolink Co. Ltd.) were acclimated to a new environment for one week and then, at 8 weeks of age, were divided into two groups of three. The test group was orally administered once with a dose of 2 g/kg of Compound 10 in a 0.5% CMC solution, while the control was administered with a 0.5% CMC (carboxymethyl cellulose) solution alone. They were monitored for death, clinical signs, change in body weight and the like for a couple of weeks. Autopsies were performed to examine the abnormality of organs.

Here are results for 15 compounds from patent publication US7902190B2, “Indol derivatives, the method for preparing thereof and composition for the prevention and treatment of metabolic disorder containing the same as an active ingredient” (Korea Research Institute of Bioscience and Biotechnology, priority 2006, dated 2011).

“Also recorded” adds a separate entry of the source.

For the compound `NC(=O)c1cccc(NC(=O)CCc2c[nH]c3ccccc23)c1` [Compound 1, 3-(3-1H-indol-3-yl-propionylamino)-benzamide], the “DGAT (inhibition % in 25 μM)” value in data set [1] amounted to 4.66%. Moreover, in data set [2], the “biosynthesis of triglyceride in comparison with the control (in words)” value (from here on “biosynthesis of triglyceride … (in words)”) is recorded as “produced smaller amounts of triglycerides than did the control” and the “Production Yield of Triglyceride (%)” value amounted to 95.5 ± 5.7%.

With `CN(C)CCn1cc(/C=C/C(=O)Nc2cccc(C(=O)NCc3ccco3)c2)c2ccccc21` [Compound 12, 3-{3[1-(2-Dimethylamino-ethyl)-1H-indol-3-yl]-acryloylamino}-N-furan-2-ylmethyl-benzamide], in data set [1], the “DGAT (inhibition % in 5 μM)” value was −11.04% and the “DGAT (inhibition % in 25 μM)” value is recorded as −0.38%.

Take `O=C(/C=C/c1c[nH]c2ccccc12)Nc1cccc(C(=O)NCc2ccco2)c1` [Compound 9, N-furan-2-ylmethyl-3-(3-1H-indol-3-yl-acryloylamino)-benzamide]: in data set [1], the “DGAT (inhibition % in 5 μM)” value is given as 2.72% and the “DGAT (inhibition % in 25 μM)” value was determined as 13.24%.

For the compound `COC(=O)c1cccc(NC(=O)/C=C/c2c[nH]c3ccccc23)c1` [Compound 4, 3-(3-1H-indol-3-yl-acryloylamino)-benzoic Acid Methyl Ester], in data set [1], the “DGAT (inhibition % in 25 μM)” value came out at 18.72%.

Take `O=C(/C=C/c1cn(S(=O)(=O)c2cccs2)c2ccccc12)Nc1cccc(C(=O)NCc2ccco2)c1` [Compound 15, N-furan-2-ylmethyl-3-[3-[1-(thiophene-2-sulfonyl)-1H-indol-3-yl]-acryloylamino]-benzamide]: in data set [1], the “DGAT (inhibition % in 5 μM)” value is listed as 40.88%, the “DGAT (inhibition % in 25 μM)” value was 49.88% and the “inhibitory activity against DGAT (in words)” value (“inhibitory activity” below) is “potent inhibitory activity against DGAT in a dose-dependent manner”. Moreover, in data set [2], the “biosynthesis of triglyceride … (in words)” value was “produced smaller amounts of triglycerides than did the control; also recorded: highly inhibit the biosynthesis of triglyceride”, the “inhibition of the biosynthesis of triglycerides” value (from here on “inhibition … of triglycerides”) stood at 38.5% and the “Production Yield of Triglyceride (%)” value is listed as 61.5 ± 7.1%.

Take `NC(=O)c1cccc(NC(=O)/C=C/c2c[nH]c3ccccc23)c1` [Compound 2, 3-(3-1H-indol-3-yl-acryloylamino)-benzamide]: in data set [1], the “DGAT (inhibition % in 25 μM)” value amounted to 19.36%.

Take `O=C(/C=C/c1cn(Cc2ccccc2)c2ccccc12)Nc1cccc(C(=O)NCc2ccco2)c1` [Compound 11, 3-[3-(1-Benzyl-1H-indol-3-yl)-acryloylamino]-N-furan-2-ylmethyl-benzamide]: in data set [1], the “DGAT (inhibition % in 5 μM)” value turned out to be 54.09%, the “DGAT (inhibition % in 25 μM)” value stood at 64.13% and the “inhibitory activity” value was “potent inhibitory activity against DGAT in a dose-dependent manner”. Also, in data set [2], the “biosynthesis of triglyceride … (in words)” value is “produced smaller amounts of triglycerides than did the control; also recorded: highly inhibit the biosynthesis of triglyceride”, the “inhibition … of triglycerides” value is recorded as 44.5% and the “Production Yield of Triglyceride (%)” value amounted to 55.5 ± 7.2%.

As to `CC(=O)n1cc(/C=C/C(=O)Nc2cccc(C(=O)NCc3ccco3)c2)c2ccccc21` [Compound 16, 3-[3-(1-Acetyl-1H-indol-3-yl)-acryloylamino]-N-furan-2-ylmethyl-benzamide], in data set [1], the “DGAT (inhibition % in 5 μM)” value is −10.09% and the “DGAT (inhibition % in 25 μM)” value was 39.82%.

For `O=C(/C=C/c1c[nH]c2ccccc12)Nc1cccc(C(=O)NCCN2CCCCC2)c1` [Compound 7, 3-(3-1H-indol-3-yl-acryloylamino)-N-(2-piperidin-1-yl-ethyl)-benzamide], in data set [1], the “DGAT (inhibition % in 5 μM)” value is on record as −5.29% and the “DGAT (inhibition % in 25 μM)” value is recorded as −3.11%.

Regarding `CC(C)(C)OC(=O)n1cc(/C=C/C(=O)Nc2cccc(C(=O)NCc3ccco3)c2)c2ccccc21` [Compound 10, 3-(2-3-[(Furan-2-ylMethyl)-Carbamoyl]-Phenylcarbamoyl-Vinyl)-Indole-1-Carboxylic Acid-t-Butyl Ester], in data set [1], the “DGAT (inhibition % in 5 μM)” value amounted to 60.22%, the “DGAT (inhibition % in 25 μM)” value amounted to 78.68% and the “inhibitory activity” value is “potent inhibitory activity against DGAT in a dose-dependent manner”. Further, in data set [2], the “biosynthesis of triglyceride … (in words)” value is “produced smaller amounts of triglycerides than did the control; also recorded: highly inhibit the biosynthesis of triglyceride”, the “inhibition … of triglycerides” value is listed as 50.8% and the “Production Yield of Triglyceride (%)” value was 49.2 ± 5.7%. Also, in data set [3] (administered once at a dose of up to 2,000 mg/kg), the “oral acute toxicity (in words)” value was “no oral acute toxicity”. In addition, the “Mortality (No. of Dead/No of Tested)” value in data set [3] (single oral dose 2 g/kg in 0.5% CMC, monitored two weeks) is 0/3. For the same compound, in data set [3] (single oral dose 2 g/kg, Day 0, Mean ± SD), the “Body Weight (g) Day 0” value is recorded as 36 ± 0.5 g. Further, in data set [3] (single oral dose 2 g/kg, Day 1, Mean ± SD), the “Body Weight (g) Day 1” value is recorded as 38 ± 1.0 g. In addition, the “Body Weight (g) Day 3” value in data set [3] (single oral dose 2 g/kg, Day 3, Mean ± SD) is reported as 38 ± 0.2 g. In addition, the “Body Weight (g) Day 7” value in data set [3] (single oral dose 2 g/kg, Day 7, Mean ± SD) came out at 39 ± 1.2 g. Besides, in data set [3] (single oral dose 2 g/kg, Day 14, Mean ± SD), the “Body Weight (g) Day 14” value was found to be 42 ± 2.0 g.

`O=C(/C=C/c1c[nH]c2ccccc12)Nc1cccc(C(=O)NCCCN2CCOCC2)c1` [Compound 8, 3-(3-1H-indol-3-yl-acryloylamino)-N-(3-morpholin-4-yl-propyl)-benzamide]: in data set [1], the “DGAT (inhibition % in 5 μM)” value is 3.06% and the “DGAT (inhibition % in 25 μM)” value was 2.05%.

Take `CC(C)(C)OC(=O)Cn1cc(/C=C/C(=O)Nc2cccc(C(=O)NCc3ccco3)c2)c2ccccc21` [Compound 13, [3-(2-{3-[(Furan-2-ylmethyl)-carbamoyl]-phenylcarbamoyl}-vinyl)-indol-1-yl]-acetic acid-t-butyl Ester]: in data set [1], the “DGAT (inhibition % in 5 μM)” value is given as −0.95% and the “DGAT (inhibition % in 25 μM)” value is recorded as 53.15%.

Turning to `O=C(/C=C/c1c[nH]c2ccccc12)Nc1cccc(C(=O)O)c1` [Compound 6, 3-(3-1H-indol-3-yl-acryloylamino)-benzoic Acid], in data set [1], the “DGAT (inhibition % in 25 μM)” value stood at 11.52%. Moreover, in data set [2], the “biosynthesis of triglyceride … (in words)” value is “produced smaller amounts of triglycerides than did the control” and the “Production Yield of Triglyceride (%)” value stood at 92.5 ± 6.7%.

For `O=C(/C=C/c1cn(S(=O)(=O)Cc2ccccc2)c2ccccc12)Nc1cccc(C(=O)NCc2ccco2)c1` [Compound 14], in data set [1], the “DGAT (inhibition % in 5 μM)” value turned out to be 43.19%, the “DGAT (inhibition % in 25 μM)” value is recorded as 50.89% and the “inhibitory activity” value is recorded as “potent inhibitory activity against DGAT in a dose-dependent manner”.

As for `O=C(CCc1c[nH]c2ccccc12)Nc1cccc(C(=O)O)c1` [Compound 5, 3-(3-1H-indol-3-yl-propionylamino)-benzoic Acid], the “DGAT (inhibition % in 25 μM)” value in data set [1] was found to be 0.08%.
